Measured values as given in publication PMC12056667 (Chemical Science, 2025).

Biological target: Tet(X4) (Escherichia coli, UniProt A0A3T0V9Y5)
Test: Absorbance activity assay (tigecycline turnover, A400)
Format: biochemical
Description: We then tested the binding of reported type 1 TDase inhibitors to Tet(X4) (Fig. 3f, ESI Fig. S17 ^†).[33,38,39] […] These compounds gave similar apparent IC50^app values, in accord with trends in IC50 measurements performed by Markley et al.[33] […] We also developed a complementary endpoint activity assay where the turnover of tigecycline by Tet(X4) in a 96-well plate was quenched by addition of 1%v/v formic acid and analysed chromatographically. The peak integrals of tigecycline and its hydroxylated degradation product at 254 nm following UPLC analysis were measured to determine turnover (Fig. 5a). As this method separates components by chromatography, it enables IC50 measurements independent of potential interference from UV-active inhibitors (Fig. 5b). […] The apparent synergy of AZT with tetracyclines against whole cells expressing Tet(X4)[40] is therefore interesting and may derive from the proposed ability of AZT to interfere with DNA synthesis in bacteria,[40,53] or other unidentified mechanisms. […] Note, however, that plumbagin and 2-MNQ are naphthoquinones, which are well-characterised redox-active pan-assay interference (PAINS) moieties.[54]
233 Absorbance Activity Assays
234 A solution containing 100 mM TAPS (pH 8.5), 2 µM FAD, 10 mM MgCl2 and 100 nM Tet(X4) was
235 dispensed into a 384 well µClear plate (Greiner Bio-One), 25 µL per well, using a microplate reagent
236 dispenser. A 3-fold, 10-point dilution series of the substrates and inhibitors was made in DMSO with
237 the highest concentration of 50 mM, unless otherwise stated, and transferred to the enzyme solution in
238 technical quadruplicate using a CyBi-Well (CyBio) liquid-handling robot (1 µL per well). On each plate,
239 a column of no enzyme negative controls and no inhibitor (DMSO only) positive controls were
240 included. The plate was briefly centrifuged (1000 rpm), then incubated (ambient temperature,15 min).
241 A solution containing 100 mM TAPS (pH 8.5), 50 µM tigecycline and 500 µM NADPH was then
242 dispensed, with 25 µL per well. The plate was briefly centrifuged (1000 rpm), then transferred to a
243 CLARIOstar Plus Microplate reader. The absorbance was monitored at wavelength […] over the
244 course of 2 hours (23 flashes / cycle, 180 s cycle time, 41 data points, 25 ° C). The initial rate was
245 calculated by measuring the rate of change of A400 during the initial linear regime. Initial rates were
246 normalised between positive and negative controls. The normalised % response was plotted as a
247 function of log10([Inhibitor]) in molar units, and the IC50 was determined as above. […]

With `Cc1c2c(c(O)c3c(O)cccc13)C(=O)[C@]1(O)C(=O)C(C(N)=O)=C(O)[C@@H](N(C)C)[C@@H]1C2` [Anhydrotetracycline] as the compound, how does the IC50 read?
The IC50 was 7.6 ± 2 µM.
